Laboratory results from patent publication US20090023807A1, “Treatment of Cytokine Dysregulation by Using Sn-2 Gamma-Linolenoyl, Gamma-Diho-Molinolenoyl or Arachidonoyl Patty Acid Glycerol Monoesters” (BTG International Limited, priority 2005, published 2009).

Key:
[1] = Precipitation of the solubilised sn-2 monoglyceride; assay type: physicochemical; conditions: acid pH
[2] = system: TGF-β1; test: TGF-β1 production from spleen mononuclear cells of mice fed the monoglyceride by gavage (ELISA); assay type: in vivo, SJL mice; conditions: fed 50 μg; for TGF-β1 production from spleen PBMCs: seven days by gavage
Description: After seven days animals were killed and the brain, liver and spleen were removed—the liver and brain frozen at −70° C. and mononuclear cells were isolated from spleens by sieving and density centrifugation on Lymphoprep (Sigma Chemical Co) and cultured at 37° C. in 5% CO2 atmosphere in 5 ml culture tubesat a cell density of 1×10^6 cells/ml in RPMI 1640 medium in 5% foetal calf serum (FCS). Cells were cultured with and without 1 μg/ml or 25 μg/ml concanavalin A (Con A) for approximately 20 hours and the supernatants removed and stored at −70° C. until required. Mouse TGF-β1 was measured in supernatants using a commercially available ELISA (Promega, Madison Wis.).

[3] = system: TNF-α; conditions: cited from earlier work
[4] = Tolerability of gavage feeding; assay type: in vivo, SJL mice; conditions: higher doses (of 50, 125 and 250 μl), seven days
[5] = Storage stability and rearrangement of the monoglyceride; assay type: physicochemical
Excerpt: This exemplifies its potential for inclusion in air excluding formats such as capsules or e.g. collapsible bag containers which allow egress of oil without entry of air. A high purity process for its synthesis has also been published in Yang et al, Journal of the Chinese Institute of Chemical Engineers, 34, 617-623 (2003). These processes lend themselves to synthesis of n-3 and n-6 sn-2 monoglycerides by replacing the arachdonoyl or γ-linolenoyl source with the desired acyl group containing molecule.
Boric acid (2.81) g, 0.045 mol, 4 equivalents) was added to a freshly prepared solution of 1,3-O-benzylidene glycerol 2-octa-6Z,9Z,12Z-trienoate (5.0 g, 0.011 mol, 1 equivalent) in trimethyl borate (28 ml, 26.0 g, 0.25 mol, 22 equivalents) under N2. The mixture was stirred and heated in a sealed Teflon bomb at 90° C. for 15 minutes. The resulting cool solution was concentrated in vacuo and the residue heated at 90° C. under vacuum for 5 minutes. […] This process was repeated on the same scale twice more and the combined residues were dissolved in ether (150 ml) and washed with water (2×50 ml). The ether extract (not dried as MgSO4 promotes rearrangement) was concentrated in vacuo, ethanol added to the residue and the solution re-evaporated with ethanol (2×) to remove water. The residual tan oil (15.0 g) was purified by column chromatography on solica gel-boric acid (10:1) (10 g). Elution with DCM and then DCM-methanol (9:1) gave the product as a yellow oil (11.7 g, 73%) HPLC purity 93.4%. This material was stored in a freezer at −20° C. under N2.

[6] = system: CREAE; test: CREAE feeding study; assay type: in vivo
Excerpt: γ-Linolenic acid (18:3 n-6, or GLA) is known to be rapidly converted to longer-chain omega-6 polyunsaturated fatty acids dihomo-γ-linolenic acid and arachidonic acid in vivo (Phylactos et al 1994, Harbige et al 1995, 2000). Therefore to determine how to increase the level of membrane long chain omega-6 fatty acids in MS the inventors have reviewed their results obtained with several GLA-containing oils:-both fungal (from Mucor javanicus) and plant (Borago officianalis), Evening primrose Oenothera spp. or Blackcurrant Ribes spp) as well as a synthetic tri-GLA oil as GLA delivery systems in an in vivo experimental animal model of MS known as chronic relapsing experimental autoimmune encephalomyelitis (CREAE). […] Importantly blackcurrant seed oil has a low sn-2 GLA with most of the GLA in the sn-1 and sn-3 positions (Lawson and Hughes 1988). […] This would also be consistent with the sn-2 GLA being important i.e. the outer pair sn-1 and sn-3 GLA being enzymatically removed in vivo and probably undergoing oxidation leaving the sn-2 GLA only. This selective hydrolysis arises from the known ability of specific lipases to remove the sn-1 and sn-3 fatty acids from triacylgycerol molecules but an apparent protection of the sn-2 position in vivo (Lawson and Hughes 1988, Kyle 1990).

| SMILES | Precipitation [1] | Change % of TGF-β1 production versus control ([2]; Con A 0 μg/ml) | Change % of TGF-β1 production versus control ([2]; Con A 1 μg/ml) | Change % of TGF-β1 production versus control ([2]; Con A 25 μg/ml) | TGF-β1 production from spleen PBMCs ([2]; stimulated, Con A 1 μg/ml) | TGF-β1 production from spleen PBMCs ([2]; stimulated, Con A 25 μg/ml) | TGF-β1 production from spleen PBMCs ([2]; unstimulated, Con A 0 μg/ml) | Activity in reducing TNF-α [3] | Regurgitation after gavage [4] | Deterioration on storage ([5]; freezer at −20° C. under N2, 21 days) | Rearrangement to the 1-γ-Linolenoyl glycerol isomer ([5]; when heated or treated with acids or bases) | Deterioration on storage ([5]; yellow oil, −20° C. under nitrogen, several weeks at least) | Protective effects in CREAE [6] |
| --- | --- | --- | --- | --- | --- | --- | --- | --- | --- | --- | --- | --- | --- |
| CCCCC/C=C\C/C=C\C/C=C\CCCCC(=O)OC(CO)CO [Example 1b, glycerol 2-octa-6Z,9Z,12Z-trienoate] | tendency to precipitate | 80% | 79% | 42% | 409 pg/mL | 480 pg/mL | 377 pg/mL | inactive | prone to regurgitation | Little if any deterioration | can undergo rearrangement | without deterioration |  |
| CCCCC/C=C\C/C=C\C/C=C\CCCCC(=O)OCC(COC(=O)CCCC/C=C\C/C=C\C/C=C\CCCCC)OC(=O)CCCC/C=C\C/C=C\C/C=C\CCCCC [TG-GLA] |  |  |  |  |  |  |  |  |  |  |  |  | protective effects similar to that of the borage oil |
